Several values for one entry are separate records, joined by “and”; a condition that tells them apart may be missing. Identical values can stand only once. Inconclusive results and toxic doses are left out. Rule for the calls: active = survival T/C of 150% or more; inactive = T/C below 125% in these data.
Test system: CD2F1 mice, L1210 leukemia ip, survival T/C
Experiment: NCI In Vivo Anticancer Drug Screen. Data for tumor model L1210 Leukemia (intraperitoneal) in CD2F1 (CDF1) mice
Details: higher = longer survival
Experimental: The antitumor activity of compounds was measured in mice bearing transplantable tumors. Survival or tumor size were measured and the results are expressed as the measurement made in the treated group (T) divided by the measurement made in the vehicle treated control group (C). The tumor model used in this assay is L1210 Leukemia (intraperitoneal) in CD2F1 (CDF1) mice

[1] = endpoint: mean survival time, dose: 100.0 mg/kg/injection, schedule: Q01DX009 (ip), vehicle: saline with Tween-80
[2] = endpoint: mean survival time, dose: 100.0 mg/kg/injection, schedule: Q04DX003 (ip), vehicle: saline with Tween-80
[3] = endpoint: mean survival time, dose: 200.0 mg/kg/injection, schedule: Q01DX009 (ip), vehicle: saline with Tween-80
[4] = endpoint: mean survival time, dose: 200.0 mg/kg/injection, schedule: Q04DX003 (ip), vehicle: saline with Tween-80
[5] = endpoint: mean survival time, dose: 400.0 mg/kg/injection, schedule: Q01DX009 (ip), vehicle: saline with Tween-80
[6] = endpoint: mean survival time, dose: 400.0 mg/kg/injection, schedule: Q04DX003 (ip), vehicle: saline with Tween-80
[7] = endpoint: mean survival time, dose: 100.0 mg/kg/injection, schedule: Q04DX002 (ip), vehicle: saline with Tween-80
[8] = endpoint: mean survival time, dose: 200.0 mg/kg/injection, schedule: Q04DX002 (ip), vehicle: saline with Tween-80
[9] = endpoint: mean survival time, dose: 400.0 mg/kg/injection, schedule: Q04DX002 (ip), vehicle: saline with Tween-80
[10] = endpoint: mean survival time, dose: 100.0 mg/kg/injection, schedule: Q01DX001 (ip), vehicle: saline with Tween-80
[11] = endpoint: mean survival time, dose: 200.0 mg/kg/injection, schedule: Q01DX001 (ip), vehicle: saline with Tween-80
[12] = endpoint: mean survival time, dose: 400.0 mg/kg/injection, schedule: Q01DX001 (ip), vehicle: saline with Tween-80

Measured: T/C

Cc1ccc(NC(=O)c2ccccc2C(=O)O)cc1C
inactive: [1] 98 % of control | [2] 100 % of control | [3] 95 % of control | [4] 101 % of control | [5] 94 % of control | [6] 103 % of control

CC(=O)OCC1OC(OC(C)=O)C(NC(=O)Nc2cccc(N)c2)C(OC(C)=O)C1OC(C)=O (configuration not stated)
inactive: endpoint: mean survival time, dose: 5.0 mg/kg/injection, schedule: Q04DX003 (ip), vehicle: water 102 % of control | endpoint: mean survival time, dose: 10.0 mg/kg/injection, schedule: Q04DX003 (ip), vehicle: water 96 % of control | endpoint: mean survival time, dose: 20.0 mg/kg/injection, schedule: Q04DX003 (ip), vehicle: water 96 % of control | endpoint: mean survival time, dose: 40.0 mg/kg/injection, schedule: Q04DX003 (ip), vehicle: water 96 % of control | endpoint: mean survival time, dose: 80.0 mg/kg/injection, schedule: Q04DX003 (ip), vehicle: water 98 % of control

Cc1ccc(NS(=O)(=O)c2cccc([N+](=O)[O-])c2)cc1Cl
inactive: [2] 92 % of control | [4] 97 % of control | [6] 92 % of control

N#CSCc1cc(Cl)c(CSC#N)cc1Cl
inactive: endpoint: mean survival time, dose: 75.0 mg/kg/injection, schedule: Q04DX003 (ip), vehicle: saline 102 % of control | endpoint: mean survival time, dose: 150.0 mg/kg/injection, schedule: Q04DX003 (ip), vehicle: saline 98 % of control | endpoint: mean survival time, dose: 300.0 mg/kg/injection, schedule: Q04DX003 (ip), vehicle: saline 102 % of control

Cc1ccc(-c2nc3ncnc(N)c3[nH]2)cc1[N+](=O)[O-]
inactive: endpoint: mean survival time, dose: 37.5 mg/kg/injection, schedule: Q01DX001 (ip), vehicle: saline with Tween-80 101 % of control | endpoint: mean survival time, dose: 75.0 mg/kg/injection, schedule: Q01DX001 (ip), vehicle: saline with Tween-80 90 % of control | endpoint: mean survival time, dose: 150.0 mg/kg/injection, schedule: Q01DX001 (ip), vehicle: saline with Tween-80 88 % of control

NC(CN1CCCCC1)C(=O)O (configuration not stated)
inactive: [7] 98 % of control | [8] 90 % of control | [9] 94 % of control

NC(=S)N/N=C\c1nccc2c(C(F)(F)C(F)(F)C(F)(F)F)cccc12
inactive: [7] 93 % of control | [8] 96 % of control | [9] 96 % of control

CCOC(=O)C(Cc1c[nH]c2ccccc12)(NC(C)=O)C(=O)OCC
inactive: [2] 98 % of control | [4] 96 % of control | [6] 104 % of control

C/C=N\N=C(N)N
inactive: endpoint: mean survival time, dose: 30.0 mg/kg/injection, schedule: Q01DX010 (ip), vehicle: saline 96 % of control | endpoint: mean survival time, dose: 60.0 mg/kg/injection, schedule: Q01DX009 (ip), vehicle: saline 96 % of control | endpoint: mean survival time, dose: 120.0 mg/kg/injection, schedule: Q01DX010 (ip), vehicle: saline 91 % of control | endpoint: mean survival time, dose: 240.0 mg/kg/injection, schedule: Q01DX009 (ip), vehicle: saline 93 % of control | endpoint: mean survival time, dose: 480.0 mg/kg/injection, schedule: Q01DX009 (ip), vehicle: saline 93 % of control

C[CH2][Pb]([CH2]C)([CH2]C)[O]C(=O)C=C1CCCC1
inactive: endpoint: mean survival time, dose: 0.63 mg/kg/injection, schedule: Q01DX009 (ip), vehicle: saline 96 % of control | endpoint: mean survival time, dose: 1.25 mg/kg/injection, schedule: Q01DX009 (ip), vehicle: saline 102 % of control | endpoint: mean survival time, dose: 2.5 mg/kg/injection, schedule: Q01DX009 (ip), vehicle: saline 95 % of control | endpoint: mean survival time, dose: 5.0 mg/kg/injection, schedule: Q04DX003 (ip), vehicle: saline with Tween-80 92 % of control | endpoint: mean survival time, dose: 10.0 mg/kg/injection, schedule: Q04DX003 (ip), vehicle: saline with Tween-80 92 % of control

N=c1nc(N)nc(N)n1-c1ccccc1
inactive: endpoint: mean survival time, dose: 50.0 mg/kg/injection, schedule: Q01DX009 (ip), vehicle: saline with Tween-80 98 % of control | [1] 102 % of control | [3] 102 % of control

[C-]#[O+].[C-]#[O+].[C-]#[O+].[C-]#[O+].[C-]#[O+].[I][Re]
inactive: endpoint: mean survival time, dose: 50.0 mg/kg/injection, schedule: Q04DX002 (ip), vehicle: other 123 % of control

CN(C)CCCCNc1ccc(NCCCCN(C)C)c2c1C(=O)c1c(O)ccc(O)c1C2=O
inactive: endpoint: mean survival time, dose: 25.0 mg/kg/injection, schedule: Q01DX009 (ip), vehicle: saline 102 % of control | endpoint: mean survival time, dose: 50.0 mg/kg/injection, schedule: Q01DX009 (ip), vehicle: saline 98 % of control | endpoint: mean survival time, dose: 100.0 mg/kg/injection, schedule: Q01DX009 (ip), vehicle: saline 93 % of control

NC(N)=N/N=C(\c1ccc(C(F)(F)F)cc1)c1ccc(Cl)c(Cl)c1
inactive: endpoint: mean survival time, dose: 75.0 mg/kg/injection, schedule: Q01DX001 (ip), vehicle: saline 91 % of control

CC1CCC(CC(N)=O)C1(C)C (configuration not stated)
inactive: [10] 97 % of control | [11] 105 % of control | [12] 97 % of control

O=C([O-])[O-].O=[N+]([O-])O.[Co+3].[NH2-].[NH2-].[NH2-].[NH2-]
inactive: [5] 93 % of control | [6] 94 % of control

CN1CCCN(O)C1=O
inactive: endpoint: mean survival time, dose: 37.5 mg/kg/injection, schedule: Q01DX007 (ip), vehicle: saline 94 % of control | endpoint: mean survival time, dose: 75.0 mg/kg/injection, schedule: Q01DX007 (ip), vehicle: saline 92 % of control | endpoint: mean survival time, dose: 150.0 mg/kg/injection, schedule: Q01DX007 (ip), vehicle: saline 94 % of control | endpoint: mean survival time, dose: 300.0 mg/kg/injection, schedule: Q01DX007 (ip), vehicle: saline 100 % of control | endpoint: mean survival time, dose: 600.0 mg/kg/injection, schedule: Q01DX007 (ip), vehicle: saline 100 % of control

COc1ccc(NC(=O)Nc2cc(C)on2)c(Cl)c1
inactive: endpoint: mean survival time, dose: 50.0 mg/kg/injection, schedule: Q01DX009 (ip), vehicle: Klucel (hydroxypropylcellulose) (HPC) 91 % of control | endpoint: mean survival time, dose: 100.0 mg/kg/injection, schedule: Q01DX009 (ip), vehicle: Klucel (hydroxypropylcellulose) (HPC) 95 % of control | endpoint: mean survival time, dose: 100.0 mg/kg/injection, schedule: Q04DX003 (ip), vehicle: Klucel (hydroxypropylcellulose) (HPC) 110 % of control | endpoint: mean survival time, dose: 200.0 mg/kg/injection, schedule: Q01DX009 (ip), vehicle: Klucel (hydroxypropylcellulose) (HPC) 98 % of control | endpoint: mean survival time, dose: 200.0 mg/kg/injection, schedule: Q04DX003 (ip), vehicle: Klucel (hydroxypropylcellulose) (HPC) 106 % of control | endpoint: mean survival time, dose: 400.0 mg/kg/injection, schedule: Q04DX003 (ip), vehicle: Klucel (hydroxypropylcellulose) (HPC) 106 % of control

O=C(O)CC1(O)CCCCC1c1ccccc1 (configuration not stated)
inactive: [2] 104 % of control | [4] 105 % of control | [6] 88 % of control

CC(C)c1ccc(-n2cnc3c(=O)[nH]c(N)nc32)cc1
inactive: [10] 94 % of control | [11] 94 % of control | [12] 91 % of control

O=C(O)/C=C/C(=O)NC1CCCCC1
inactive: [2] 97 % of control and 101 % of control | [4] 101 % of control and 97 % of control | [6] 98 % of control and 95 % of control

NC(=O)c1cc(Cl)nc2nc(Cl)nc(N)c12
inactive: endpoint: median survival time, dose: 25.0 mg/kg/injection, schedule: Q01DX009 (ip), vehicle: saline with Tween-80 89 % of control | endpoint: median survival time, dose: 50.0 mg/kg/injection, schedule: Q01DX009 (ip), vehicle: saline with Tween-80 94 % of control | endpoint: median survival time, dose: 100.0 mg/kg/injection, schedule: Q01DX009 (ip), vehicle: saline with Tween-80 100 % of control | endpoint: median survival time, dose: 200.0 mg/kg/injection, schedule: Q01DX009 (ip), vehicle: saline with Tween-80 100 % of control | endpoint: median survival time, dose: 400.0 mg/kg/injection, schedule: Q01DX009 (ip), vehicle: saline with Tween-80 101 % of control

— PubChem BioAssay AID256 (DTP/NCI, 2004)
